One test addresses T1, PYR1(H115A) (Arabidopsis thaliana, UniProt O49686, H115A).
T1 sequence (O49686 1-191 H115A): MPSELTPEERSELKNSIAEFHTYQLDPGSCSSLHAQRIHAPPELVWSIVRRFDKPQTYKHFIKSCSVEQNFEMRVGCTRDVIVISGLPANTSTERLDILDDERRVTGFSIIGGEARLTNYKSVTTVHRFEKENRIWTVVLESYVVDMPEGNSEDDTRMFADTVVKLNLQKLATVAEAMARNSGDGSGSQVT
The experiment in a line: 1H-15N HSQC NMR with and without S-ABA. It is filed as binding.

The target in the next test is T2, PYL2 (Arabidopsis thaliana, UniProt O80992).
T2 sequence (O80992 14-188): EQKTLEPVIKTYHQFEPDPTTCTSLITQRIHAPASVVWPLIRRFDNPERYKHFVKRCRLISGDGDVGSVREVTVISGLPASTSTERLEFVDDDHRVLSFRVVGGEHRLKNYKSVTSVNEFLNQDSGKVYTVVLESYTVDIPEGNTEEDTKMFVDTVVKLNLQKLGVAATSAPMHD
T2 sequence (Q9CAJ0 172-511 partner): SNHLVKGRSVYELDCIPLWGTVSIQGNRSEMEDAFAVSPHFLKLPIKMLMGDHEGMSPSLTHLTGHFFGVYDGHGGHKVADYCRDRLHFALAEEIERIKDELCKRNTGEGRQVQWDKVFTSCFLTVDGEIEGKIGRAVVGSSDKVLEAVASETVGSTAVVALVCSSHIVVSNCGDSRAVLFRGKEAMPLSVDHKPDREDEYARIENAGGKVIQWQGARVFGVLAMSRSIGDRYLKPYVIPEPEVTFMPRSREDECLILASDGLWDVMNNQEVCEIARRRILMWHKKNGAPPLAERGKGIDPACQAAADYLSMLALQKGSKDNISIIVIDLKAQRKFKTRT
The experiment in a line: crystal structure of PYL2-ABA. It is filed as biochemical.

pIC50: −log10 of the molar value.

As for `CC1=CC(=O)CC(C)(C)C1(O)/C=C/C(C)=C\C(=O)O` (centres unmarked) [S-ABA], at PYR1(H115A), the “1H-15N HSQC NMR with and without S-ABA” value is “ABA binding is unaltered by the H115A mutation in the PYR1 latch”. Besides, the negative-log IC50 (pIC50) on PYL2 was 6.82.

(Values after paper PMC2810868 (Nature, 2009).)
